Some results are limits rather than exact numbers.

The test addresses T1, CDK2/cyclin A (Homo sapiens, UniProt P24941).
T1 construct: made in house; host or cells: insect ('worm') cells co-infected with baculoviruses
Kind of test: CDK2 inhibitory activity (CDK2/cyclin A, [gamma-32P] ATP, histon H1 or Rb protein substrate). Format: biochemical. As to conditions: first IC50 column (c1) of Table 1. From the text:
CDK2 enzyme was obtained from either extract from the worm cell co-infected with baculovirus which expresses a CDK2 gene and baculovirus which expresses a cyclin A gene, or active enzyme purified therefrom. CDK4 was also obtained from either extract from the worm cell co-infected with baculovirus which expresses a CDK4 gene and baculovirus which expresses a cyclin D1 gene. As substrates, histon H1 or Rb protein was used for CDK2, and Rb protein for CDK4. The radioactive activities in substrates were determined by reacting compounds diluted with each concentration with a proper quantity of CDK2/cyclin A or CDK4/cyclin D1 and substrate protein, and [gamma-32P labeled] ATP, and then separating the substrates.
Inhibitory abilities of inhibitors according to the present invention for each enzyme activity were expressed as IC50 values, which were determined in accordance with the method as described above.
As usually defined, the IC50 is the concentration that gives 50% inhibition. `O=C(Cc1ccc(-c2ccncc2)cc1)Nc1n[nH]c2ccc(N3CCCS3(=O)=O)cc12` [Compound 33, N-[5-(1,1-dioxo-1λ^6-isothiazolidin-2-yl)-1H-indazol-3-yl]-2-[4-(4-pyridinyl)phenyl]acetamide] came in with an IC50 of under 50 nM. With `O=C(Cc1ccc(Cl)cc1)Nc1n[nH]c2ccc(N3CCCS3(=O)=O)cc12` [Compound 8, 2-(4-chlorophenyl)-N-[5-(1,1-dioxo-1λ^6-isothiazolidin-2-yl)-1H-indazol-3-yl]acetamide] the figure was under 50 nM. `O=S1(=O)CCCN1c1ccc2[nH]nc(NC(=S)Cc3ccccc3)c2c1` [Compound 13, N-[5-(1,1-dioxo-1λ^6-isothiazolidin-2-yl)-1H-indazol-3-yl]-2-phenylethanethioamide] gave an IC50 of under 10000 nM. The same measure for `Nc1ccc(CC(=O)Nc2n[nH]c3ccc(N4CCCS4(=O)=O)cc23)cc1` [Compound 7, 2-(4-aminophenyl)-N-[5-(1,1-dioxo-1λ^6-isothiazolidin-2-yl)-1H-indazol-3-yl]acetamide]: under 50 nM.

In turn, `O=C(Cn1cnc2ccccc21)Nc1n[nH]c2ccc(N3CCCS3(=O)=O)cc12` [Compound 41, 2-(1H-benzimidazol-1-yl)-N-[5-(1,1-dioxo-1λ^6-isothiazolidin-2-yl)-1H-indazol-3-yl]acetamide] registered an IC50 of under 50 nM. With `NCCOc1ccc(CC(=O)Nc2n[nH]c3ccc(N4CCCS4(=O)=O)cc23)cc1` [Compound 82, 2-[4-(2-aminoethoxy)phenyl]-N-[5-(1,1-dioxo-1λ^6-isothiazolidin-2-yl)-1H-indazol-3-yl]acetamide] the figure was under 1000 nM; with `O=C(Cn1cnc(-c2ccccc2)c1)Nc1n[nH]c2ccc(N3CCCS3(=O)=O)cc12` [Compound 47, N-[5-(1,1-dioxo-1λ^6-isothiazolidin-2-yl)-1H-indazol-3-yl]-2-(4-phenyl-1H-imidazol-1-yl)acetamide], under 50 nM. The compound `Cc1ccc(CC(=O)Nc2n[nH]c3ccc(N4CCCS4(=O)=O)cc23)cc1` [Compound 28, N-[5-(1,1-dioxo-1λ^6-isothiazolidin-2-yl)-1H-indazol-3-yl]-2-(4-methylphenyl)acetamide] gave an IC50 of under 50 nM. `O=C(Cc1cccc(Cl)c1)Nc1n[nH]c2ccc(N3CCCS3(=O)=O)cc12` [Compound 2, 2-(3-chlorophenyl)-N-[5-(1,1-dioxo-1λ^6-isothiazolidin-2-yl)-1H-indazol-3-yl]acetamide] showed an IC50 of under 50 nM.

Turning to `CN1CCN(CC(=O)Nc2n[nH]c3ccc(N4CCCS4(=O)=O)cc23)CC1` [Compound 30, N-[5-(1,1-dioxo-1λ^6-isothiazolidin-2-yl)-1H-indazol-3-yl]-2-(4-methyl-1-piperazinyl)acetamide], the IC50 was under 10000 nM. As for `O=C(CN1CCCCC1)Nc1n[nH]c2ccc(N3CCCS3(=O)=O)cc12` [Compound 32, N-[5-(1,1-dioxo-1λ^6-isothiazolidin-2-yl)-1H-indazol-3-yl]-2-(1-piperidinyl)acetamide], the IC50 was under 10000 nM.

In turn, `O=C(Cc1ccc(Oc2ccccc2)cc1)Nc1n[nH]c2ccc(N3CCCS3(=O)=O)cc12` [Compound 54, N-[5-(1,1-dioxo-1λ^6-isothiazolidin-2-yl)-1H-indazol-3-yl]-2-(4-phenoxyphenyl)acetamide] yielded an IC50 of under 100 nM. `NCCOc1ccc(CC(=O)Nc2n[nH]c3ccc(N4CCCS4(=O)=O)cc23)cc1` [Compound 75, 2-[4-(2-aminoethoxy)phenyl]-N-[5-(1,1-dioxo-1λ^6-isothiazolidin-2-yl)-1H-indazol-3-yl]acetamide]: the IC50 is under 100 nM.

As to `CCOc1ccc(CC(=O)Nc2n[nH]c3ccc(N4CCCS4(=O)=O)cc23)cc1` [Compound 42, N-[5-(1,1-dioxo-1λ^6-isothiazolidin-2-yl)-1H-indazol-3-yl]-2-(4-ethoxyphenyl)acetamide], the IC50 was under 50 nM. The same measure for `O=C(Cc1ccc(CN2CCOCC2)cc1)Nc1n[nH]c2ccc(N3CCCS3(=O)=O)cc12` [Compound 43, N-[5-(1,1-dioxo-1λ^6-isothiazolidin-2-yl)-1H-indazol-3-yl]-2-[4-(4-morpholinylmethyl)phenyl]acetamide]: under 100 nM.

`O=C(Cc1ccc(Cn2ccnc2)cc1)Nc1n[nH]c2ccc(N3CCCS3(=O)=O)cc12` [Compound 46, N-[5-(1,1-dioxo-1λ^6-isothiazolidin-2-yl)-1H-indazol-3-yl]-2-[4-(1H-imidazole-1-ylmethyl)phenyl]acetamide] yielded an IC50 of under 1000 nM.

In turn, `O=C(Cc1ccc(-c2ccccc2)cc1)Nc1n[nH]c2ccc(N3CCCS3(=O)=O)cc12` [Compound 10, 2-[1,1′-biphenyl]-4-yl-N-[5-(1,1-dioxo-1λ^6-isothiazolidin-2-yl)-1H-indazol-3-yl]acetamide] displayed an IC50 of under 50 nM.

Consider `O=C(Cc1ccc(-c2ccsc2)cc1)Nc1n[nH]c2ccc(N3CCCS3(=O)=O)cc12` [Compound 36, N-[5-(1,1-dioxo-1λ^6-isothiazolidin-2-yl)-1H-indazol-3-yl]-2-[4-(3-thienyl)phenyl]acetamide], for which the IC50 was under 50 nM.

The values above are taken from patent publication US6620831B2, “Indazoles substituted with 1,1-dioxoisothiazolidine useful as inhibitors of cell proliferation” (LG Life Sciences Ltd., priority 2000, dated 2003).
